From patent US20250270209A1 (INTERLINE THERAPEUTICS, INC., priority 2022, published 2025) come the findings set out here.

pIC50: −log10 of the molar value.

Assay [1] deals with T1, wild type LRRK2 overexpressed in recombinant HEK-293T cells (Homo sapiens, UniProt Q5S007).
T1 construct: host or cells: HEK293T (transient transfection with pCMV-LRRK2 WT plasmid)
Put plainly: pS935 LRRK2 Cell Assay (HTRF, phospho-LRRK2 Ser935). The assay is classed as cell-based. The settings on record: LRRK2 Inhibition, Table 8, 2 hours compound incubation. As for the experimental part:
(§1) A 2× detection solution was prepared: Tb-pERM (pLRRKtide) antibody (final concentration 0.25 nM) and EDTA (final concentration 10 mM) in TR-FRET dilution buffer. 10 μL 2× detection solution was dispensed to each well in assay plate to stop kinase reaction by Multidrop. Assay plate was spun at 1,000 rpm for 1 min and incubate for 30 min at 23° C. Assay plate was then read on Envision configured for LanthaScreen® TR-FRET. pS935 LRRK2 Cell Assay
The following protocol describes an in-vitro method for measuring phosphorylation at Ser935 on wild type LRRK2 overexpressed in recombinant HEK-293T cells. The method is based on HTRF technology, which combines Fluorescence Resonance Energy Transfer (FRET) with Time-Resolved measurement (TR). Phospho-LRRK2 (Ser935) is detected in a sandwich assay format using two different specific antibodies, one labelled with Eu3+-Cryptate (donor) and the second with d2(acceptor).When the fluorophores are in close proximity, excitation of the donor with a light source (flash lamp) stimulates FRET to the acceptor, which in turn fluoresces at a specific wavelength (665 nm). The fluorescence emission at 615 nm from the donor is also measured to allow ratiometric reduction of data. The specific signal is proportional to phospho-LRRK2 (Ser935).
Plasmid transient transfection: DMEM medium, FBS, DPBS, Trans-IT, OPTI-MEM reagents were allowed to warm to room temperature. HEK293T cells were cultured in DMEM +10% FBS complete medium in T150 flasks till around 80% confluency before transfection. Then cells were washed with 10 mL PBS and detached with 3 mL 0.25% typinsin. 30×10E6 HEK293T cells were seeded in DMEM +10% FBS complete medium to a 15 cm dish.
DNA, TransIT-LT1, OPTI-MEM complex were prepared: […] OPTI-MEM was added to a 15 mL cone tube, then […] plasmid was added to OPTI-MEM and mixed, followed by addition of 60 μL TransIT-LT1 to the plasmid OPTI-MEM mixture and mixing. The resulting mixture was incubated for 15 minutes.
The above plasmid, DNA and OPTI-MEM mixture was added dropwise to the 15 cm dish, ensuring the drops were evenly distributed. The culture dish was gently rocked back and forth and from left to right to evenly distribute the complex. The tranfected dish was incubated for 24 hours at 37° C., and 5% CO2.
Transfected HEK293T was collected in the 15 cm dish. Media was aspirated from tissue culture dish, and washed by dispensing 10 mL 1× DPBS into 15 cm dish. 1× DPBS was aspirated and 3 mL trypsin was dispensed to 15 cm dish. The dish was incubated with trypsin at room temperature for 3 min until the cells were detached. 10 mL of DMEM +10% FBS medium were added to 15 cm dish and triturated to ensure homogenous cell suspensions.
Homogenous cell suspensions were transferred to a 50 mL tube, and centrifuged for 5 minutes at 1,000 rmp/min. The supernatant was aspirated and resuspended with 20 mL complete medium. 1 mL of cell suspension was transferred for cell counting. The cell suspension was diluted to 2× 10E5 cells/ml. 50 μL cell suspensions were added to a 384-well plate. The plate was quick spun at 800 rpm for 1 minute, then incubate overnight at 37° C., 5% CO2.
Compound dispensing: compound was diluted (10 mM DMSO stock solution) and added to assay plate (top concentration: 10 μM, 3 fold serial dilution, 9 doses) with duplicates by Tecan liquid handler. The DMSO concentration of each well was normalized to 0.2%. Plates were quick spun at 1,000 rpm for 1 minute. Plates were incubated at 37° C., 5% CO2 for 2 hours.
1× lysis buffer solution supplemented with blocking reagent was prepared (e.g. 1 mL lysis buffer 4X+3 mL water+40 μL stock blocking reagent 100X). Antibodies working solution was prepared by diluting 40-fold d2 and Cryptate antibodies with detection buffer(e.g. 1520 μL detection buffer+40 μL d2-antibody stock solution+[…] Cryptate-antibody stock solution).
After 2 hours incubation, cell plates were taken out from the incubator. […]
A general note: In TR-FRET formats the signal depends on donor and acceptor labels being close together.

Assay [2] deals with LRRK2 wild type enzyme (Homo sapiens, UniProt Q5S007). Put plainly: Biochemical Assay: LRRK2 TR-FRET (LanthaScreen) kinase assay with LRRKtide substrate. The settings on record: LRRK2 Inhibition, Table 8. As for the experimental part:
10 mM compound solution was prepared in DMSO. An 11-point, 3-fold dilution was performed, with highest concentration at 10 μM. A 10 mM compound DMSO solution was added to Labcyte LDV plate and the compound concentration of source plate was 10 mM. The 1st compound concentration of Inter plate(Labcyte 384 well PP plate) was 4.938×10^−1 mM which was prepared by transferring 1.5 μL of 10 mM compound from source plate to 28.9 μL DMSO. The 2nd compound concentration of Inter plate was 1.829×10^−2 mM which was prepared by transferring 60 nL of 10 mM compound from source plate to 32.7 μL DMSO. The 3rd compound concentration of Inter plate was 6.774×10^−4 mM which was prepared by transferring 2.5 nL of 10 mM compound from source plate to 36.9 μL DMSO. 100 nL of reference compound was dispensed in column 1 for low control wells and 100 nL of DMSO in column 24 for high control wells. Compounds were dispensed to column 2 to 23 of assay plate and backfilled with DMSO to a total volume of 100 nL.
A 2X LRRK2 enzyme solution (final concentration 3 nM) was prepared in assay buffer (Tris-HCl pH8.0:50 mM, MgCl2: 5 mM, EDTA: 1 mM, Brij-35:0.01%, 2 mM DTT). A 2× substrate solution was prepared: LRRK2 tide substrate (final concentration 400 nM) and ATP (final concentration 25 μM) in assay buffer. 5 μL 2× LRRK2 enzyme solution was dispensed to each well in assay plate by Multidrop. Assay plate was spun at 1,000 rpm for 1 min and incubated for 15 min at 23° C. 5 μL 2× ATP/LRRKtide solution was dispensed to each well in assay plate by Multidrop. Assay plate was spun at 1,000 rpm for 1 min and incubated for 120 min at 23° C.
as §1

As a reminder, the pIC50 is the IC50 on a negative log10 scale, so that one unit is a factor of ten.

T1 sequence (Q5S007 whole entry): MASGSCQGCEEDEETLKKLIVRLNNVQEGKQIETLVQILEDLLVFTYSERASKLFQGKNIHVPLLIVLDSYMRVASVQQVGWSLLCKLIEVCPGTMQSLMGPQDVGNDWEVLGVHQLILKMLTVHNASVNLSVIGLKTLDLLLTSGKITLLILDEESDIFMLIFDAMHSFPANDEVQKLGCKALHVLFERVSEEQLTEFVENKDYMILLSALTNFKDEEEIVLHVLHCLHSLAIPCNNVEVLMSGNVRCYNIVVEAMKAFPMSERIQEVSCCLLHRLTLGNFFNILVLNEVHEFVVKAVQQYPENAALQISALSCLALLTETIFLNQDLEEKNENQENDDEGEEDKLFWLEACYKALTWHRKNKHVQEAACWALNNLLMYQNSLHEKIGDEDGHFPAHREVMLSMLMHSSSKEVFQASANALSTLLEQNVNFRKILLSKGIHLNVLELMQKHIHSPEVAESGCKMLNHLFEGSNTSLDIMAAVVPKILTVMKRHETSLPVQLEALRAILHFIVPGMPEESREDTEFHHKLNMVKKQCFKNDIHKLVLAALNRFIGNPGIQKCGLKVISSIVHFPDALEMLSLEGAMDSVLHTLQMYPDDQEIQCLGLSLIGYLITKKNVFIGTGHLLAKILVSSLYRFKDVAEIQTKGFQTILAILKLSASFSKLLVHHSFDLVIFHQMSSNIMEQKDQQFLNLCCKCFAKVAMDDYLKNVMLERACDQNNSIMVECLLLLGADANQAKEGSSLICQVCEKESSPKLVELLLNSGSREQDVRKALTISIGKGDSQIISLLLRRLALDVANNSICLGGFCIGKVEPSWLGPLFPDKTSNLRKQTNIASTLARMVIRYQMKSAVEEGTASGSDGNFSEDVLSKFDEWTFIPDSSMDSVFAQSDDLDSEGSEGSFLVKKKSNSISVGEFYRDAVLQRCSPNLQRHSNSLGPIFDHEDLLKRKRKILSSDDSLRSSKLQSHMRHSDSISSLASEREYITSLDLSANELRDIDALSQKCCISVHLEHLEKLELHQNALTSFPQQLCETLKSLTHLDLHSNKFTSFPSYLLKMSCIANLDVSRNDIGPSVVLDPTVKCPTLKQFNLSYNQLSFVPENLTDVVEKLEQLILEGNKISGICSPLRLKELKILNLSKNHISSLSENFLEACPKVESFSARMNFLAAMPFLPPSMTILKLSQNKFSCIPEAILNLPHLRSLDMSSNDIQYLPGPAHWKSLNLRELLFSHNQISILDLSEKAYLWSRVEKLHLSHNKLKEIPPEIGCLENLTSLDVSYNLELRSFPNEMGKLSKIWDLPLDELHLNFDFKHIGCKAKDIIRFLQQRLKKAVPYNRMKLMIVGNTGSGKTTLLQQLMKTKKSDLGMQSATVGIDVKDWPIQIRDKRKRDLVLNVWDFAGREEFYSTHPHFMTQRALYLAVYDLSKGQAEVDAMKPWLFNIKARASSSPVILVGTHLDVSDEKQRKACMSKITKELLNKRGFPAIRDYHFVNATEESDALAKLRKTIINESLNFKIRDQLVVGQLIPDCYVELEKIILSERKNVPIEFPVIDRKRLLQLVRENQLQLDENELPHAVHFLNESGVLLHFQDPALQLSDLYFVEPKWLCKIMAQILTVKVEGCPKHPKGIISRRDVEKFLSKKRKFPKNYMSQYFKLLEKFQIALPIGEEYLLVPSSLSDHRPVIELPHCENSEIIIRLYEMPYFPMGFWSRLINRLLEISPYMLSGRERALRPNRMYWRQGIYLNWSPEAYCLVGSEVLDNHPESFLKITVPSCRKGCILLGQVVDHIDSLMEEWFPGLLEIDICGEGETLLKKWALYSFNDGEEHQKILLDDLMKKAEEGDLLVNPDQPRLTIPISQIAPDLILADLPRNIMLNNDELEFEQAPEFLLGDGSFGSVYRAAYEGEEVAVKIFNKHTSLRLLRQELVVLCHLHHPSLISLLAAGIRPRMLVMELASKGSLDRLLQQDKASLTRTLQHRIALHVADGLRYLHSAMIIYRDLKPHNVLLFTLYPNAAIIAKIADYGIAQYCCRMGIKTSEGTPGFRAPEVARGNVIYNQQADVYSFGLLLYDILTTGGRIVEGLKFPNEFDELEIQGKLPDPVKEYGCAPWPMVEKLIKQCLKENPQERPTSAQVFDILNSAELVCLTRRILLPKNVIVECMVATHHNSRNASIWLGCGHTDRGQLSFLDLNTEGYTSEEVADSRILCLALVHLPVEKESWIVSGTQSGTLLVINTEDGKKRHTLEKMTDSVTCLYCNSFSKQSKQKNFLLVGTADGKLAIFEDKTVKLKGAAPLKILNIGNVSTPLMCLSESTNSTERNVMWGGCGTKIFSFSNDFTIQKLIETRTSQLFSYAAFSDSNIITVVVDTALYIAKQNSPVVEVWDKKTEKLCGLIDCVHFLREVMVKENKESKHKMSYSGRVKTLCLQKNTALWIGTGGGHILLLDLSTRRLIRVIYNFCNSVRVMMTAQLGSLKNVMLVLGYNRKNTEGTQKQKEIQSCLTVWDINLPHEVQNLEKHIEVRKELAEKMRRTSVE
LRRK2 wild type enzyme, sequence (Q5S007 whole entry): as above

For `C[C@@H]1C[C@H](n2c([C@@H]3CCN(S(=O)(=O)C4CC4)C3)nc3cnc4ccc(C#N)cc4c32)CCO1` [Compound 24, 2-[(3R)-1-(cyclopropanesulfonyl)pyrrolidin-3-yl]-1-[(2R,4R)-2-methyloxan-4-yl]-1H-imidazo[4,5-c]quinoline-8-carbonitrile], the pIC50 in assay [1] was 6.17; in assay [2] it was 8.27.
For the compound `C[C@@H]1C[C@H](n2c(CC(=O)NCc3cccc(C(F)(F)F)n3)nc3cnc4ccc(C#N)cc4c32)CCO1` [Compound 370, N-{[6-(trifluoromethyl)-2-pyridyl]methyl}{3-[(2R,4R)-2-methyltetrahydro-2H-pyran-4-yl]-12-cyano-3,5,8-triazatricyclo[7.4.0.0^2,6]trideca-1(9),2(6),4,7,10,12-hexaen-4-yl}acetamide], the pIC50 is 8.56 in assay [1] and 9.53 in assay [2].
In the case of `C[C@@H]1C[C@H](n2c(CC(=O)Nc3cnccc3C#N)nc3cnc4ccc(C#N)cc4c32)CCO1` [Compound 271, N-(4-cyano-3-pyridyl){3-[(2R,4R)-2-methyltetrahydro-2H-pyran-4-yl]-12-cyano-3,5,8-triazatricyclo[7.4.0.0^2,6]trideca-1,4,6,8,10,12-hexaen-4-yl}acetamide], the pIC50 in assay [1] is 8.07; in assay [2] it was 9.19.
Take `COCC(C)(C)CNC(=O)Cc1nc2cnc3ccc(C#N)cc3c2n1[C@@H]1CCO[C@H](C)C1` [Compound 266, N-(3-methoxy-2,2-dimethylpropyl){3-[(2R,4R)-2-methyltetrahydro-2H-pyran-4-yl]-12-cyano-3,5,8-triazatricyclo[7.4.0.0^2,6]trideca-1,4,6,8,10,12-hexaen-4-yl}acetamide]: the figures for the pIC50 in assay [1] and in assay [2] were 8.10 and 9.28, respectively.
For the compound `C[C@@H]1C[C@H](n2c(CC(=O)Nc3cnn(C)c(=O)c3)nc3cnc4ccc(C#N)cc4c32)CCO1` [Compound 264, N-(1-methyl-6-oxo-1,6-dihydro-4-pyridazinyl){3-[(2R,4R)-2-methyltetrahydro-2H-pyran-4-yl]-12-cyano-3,5,8-triazatricyclo[7.4.0.0^2,6]trideca-1,4,6,8,10,12-hexaen-4-yl}acetamide], the pIC50 in assay [1] was 7.13; in assay [2], 9.31.
For `Cc1nn(C)c(C)c1NC(=O)Cc1nc2cnc3ccc(C#N)cc3c2n1[C@@H]1CCO[C@H](C)C1` [Compound 187, 2-{8-cyano-1-[(2R,4R)-2-methyloxan-4-yl]-1H-imidazo[4,5-c]quinolin-2-yl}-N-(1,3,5-trimethyl-1H-pyrazol-4-yl)acetamide] the same measures were 8.02 and 9.62.
For `C[C@@H]1C[C@H](n2c(C3CC(=O)N(C4COC4)C3)nc3cnc4ccc(C#N)cc4c32)CCO1` (stereo partly drawn) [Compound 46, 1-[(2R,4R)-2-methyloxan-4-yl]-2-[1-(oxetan-3-yl)-5-oxopyrrolidin-3-yl]-1H-imidazo[4,5-c]quinoline-8-carbonitrile] the same measures were 5.88 and 8.23.
For `C[C@@H]1C[C@H](n2c(CC(=O)NC3(C)CCOC3)nc3cnc4ccc(Cl)cc4c32)CCO1` (stereo partly drawn) [Compound 333, N-(3-methyltetrahydro-3-furyl){3-[(2R,4R)-2-methyltetrahydro-2H-pyran-4-yl]-12-chloro-3,5,8-triazatricyclo[7.4.0.0^2,6]trideca-1(9),2(6),4,7,10,12-hexaen-4-yl}acetamide] the same measures were 7.51 and 8.90.
As to `C[C@@H]1C[C@H](n2c(CC(=O)NCCC(F)(F)F)nc3cnc4ccc(C#N)cc4c32)CCO1` [Compound 167, 2-{8-cyano-1-[(2R,4R)-2-methyloxan-4-yl]-1H-imidazo[4,5-c]quinolin-2-yl}-N-(3,3,3-trifluoropropyl)acetamide], the pIC50 in assay [1] was 7.34; in assay [2] it was 9.20.
For `COCCCNC(=O)Cc1nc2cnc3ccc(C#N)cc3c2n1[C@@H]1CCO[C@H](C)C1` [Compound 166, 2-{8-cyano-1-[(2R,4R)-2-methyloxan-4-yl]-1H-imidazo[4,5-c]quinolin-2-yl}-N-(3-methoxypropyl)acetamide] the same measures were 7.92 and 9.44.
The like results for `C[C@@H]1C[C@H](n2c(CC(=O)N[C@@H]3C[C@H]3F)nc3cnc4ccc(C#N)cc4c32)CCO1` [Compound 246, N-[(1R,2R)-2-fluorocyclopropyl]{3-[(2R,4R)-2-methyltetrahydro-2H-pyran-4-yl]-12-cyano-3,5,8-triazatricyclo[7.4.0.0^2,6]trideca-1(13),2(6),4,7,9,11-hexaen-4-yl}acetamide] were, in that order, 7.28 and 8.96.
As to `COc1ncnc(OC)c1NC(=O)Cc1nc2cnc3ccc(C#N)cc3c2n1[C@@H]1CCO[C@H](C)C1` [Compound 247, N-(4,6-dimethoxy-5-pyrimidinyl){3-[(2R,4R)-2-methyltetrahydro-2H-pyran-4-yl]-12-cyano-3,5,8-triazatricyclo[7.4.0.0^2,6]trideca-1(9),2(6),4,7,10,12-hexaen-4-yl}acetamide], the pIC50 in assay [1] is 8.39; in assay [2], 9.46.
Take `COc1cc(F)ncc1NC(=O)Cc1nc2cnc3ccc(C#N)cc3c2n1[C@@H]1CCO[C@H](C)C1` [Compound 230, N-(6-fluoro-4-methoxy-3-pyridyl){3-[(2R,4R)-2-methyltetrahydro-2H-pyran-4-yl]-12-cyano-3,5,8-triazatricyclo[7.4.0.0^2,6]trideca-1,4,6,8,10,12-hexaen-4-yl}acetamide]: the pIC50 was 8.31 in assay [1] and 9.35 in assay [2].
Turning to `C[C@@H]1C[C@H](n2c(CC(=O)Nc3ccn(C)c(=O)c3)nc3cnc4ccc(Cl)cc4c32)CCO1` [Compound 212, N-(1-methyl-2-oxo-1,2-dihydro-4-pyridyl){3-[(2R,4R)-2-methyltetrahydro-2H-pyran-4-yl]-12-chloro-3,5,8-triazatricyclo[7.4.0.0^2,6]trideca-1,4,6,8,10,12-hexaen-4-yl}acetamide], the negative logarithm of the IC50 (pIC50) in assay [1] was 7.94; in assay [2] it was 9.48.
